Reference: patent US10106544B2, “1,2-dihydro-3H-pyrrolo[1,2-C]imidazol-3-one derivatives and their use as antibacterial agents” (priority 2014, dated 2018)
≈ marks a conversion by molar mass, not a printed value. Read-outs that look alike come from different tables or passages of the source.

Key:
Format in all cases: cell-based
[1] = system: wild-type E. coli A-1261; assay: MIC against wild-type E. coli A-1261 with or without alkaline phosphatase or esterase; conditions: Escherichia coli
Experimental: Minimal Inhibitory Concentrations (MICs; mg/L) were determined in cation-adjusted Mueller-Hinton Broth by a microdilution method following the description given in “Methods for Dilution Antimicrobial Susceptibility Tests for Bacteria that Grow Aerobically”, Approved standard, 7th ed., a Clinical and Laboratory Standards Institute (CLSI) Document M7-A7, Wayne, Pa., USA (2006).
The compounds of Examples 37, 50, 51 and 74 were tested against wild-type E. coli A-1261 in the absence of alkaline phosphatase or esterase, in the presence of an alkaline phosphatase and in the presence of an esterase. The corresponding antibacterial test results are given in Table 2 hereafter (MICs in mg/L).

[2] = system: K. pneumoniae A-651; assay: Bacterial growth minimal inhibitory concentration (microdilution, cation-adjusted Mueller-Hinton Broth); conditions: Klebsiella pneumoniae, A651; multiply-resistant strain (in particular quinolone-resistant); read-out: MIC for K. Pneumoniae A-651
Method in brief: (§1)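 Broth microdilution in cation-adjusted Mueller-Hinton Broth per CLSI M7-A7, MIC in mg/L. K. pneumoniae A-651 is multiply resistant, including to quinolones. E. coli ATCC25922 and P. aeruginosa ATCC27853 are quinolone-sensitive.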

[3] = system: P. aeruginosa ATCC27853; assay: as above; conditions: Pseudomonas aeruginosa, ATCC27853, quinolone-sensitive strain; read-out: MIC for P. aeruginosa ATCC27853
Method in brief: as §1

[4] = system: E. coli ATCC25922; assay: as above; conditions: Escherichia coli, ATCC25922; quinolone-sensitive strain; read-out: MIC for E. coli ATCC25922
Method in brief: as §1

[5] = read-out: MIC for E. coli A-1261 In the absence of alkaline phosphatase or esterase
[6] = read-out: MIC for E. coli A-1261 In the presence of an alkaline phosphatase (2 i.U./mL)
[7] = read-out: MIC for E. coli A-1261 In the presence of an esterase (10 i.U./mL)

Row | Compound | MIC [1, 5] [µg/mL] | MIC [1, 6] [µg/mL] | MIC [1, 7] [µg/mL] | MIC [2] [µg/mL] | MIC [3] [µg/mL] | MIC [4] [µg/mL]
1 | CN(C)CC(=O)OCC1(c2ccc(C#Cc3cc4n(c3)C(=O)N(CC[C@](C)(C(=O)NO)S(C)(=O)=O)C4)cc2)CC1.Cl [Example 37, (R)-(1-(4-((2-(4-(hydroxyamino)-3-methyl-3-(methylsulfonyl)-4-oxobutyl)-3-oxo-2,3-dihydro-1H-pyrrolo[1,2-c]imidazol-6-yl)ethynyl)phenyl)cyclopropyl)methyl dimethylglycinate hydrochloride] | 0.25 | 0.125 | 0.25 | 1 | 4 | 0.5
2 | CN(C)CC(=O)OCC1(C#CC#Cc2cc3n(c2)C(=O)N(CC[C@](C)(C(=O)NO)S(C)(=O)=O)C3)CC1.Cl [Example 50, (R)-(1-((2-(4-(hydroxyamino)-3-methyl-3-(methylsulfonyl)-4-oxobutyl)-3-oxo-2,3-dihydro-1H-pyrrolo[1,2-c]imidazol-6-yl)buta-1,3-diyn-1-yl)cyclopropyl)methyl dimethylglycinate hydrochloride] | 2 | 1 | 0.5 |  |  | 
3 | C[C@@](CCN1Cc2cc(C#CC#CC3(COP(=O)(O)O)CC3)cn2C1=O)(C(=O)NO)S(C)(=O)=O [Example 51, (R)-(1-((2-(4-(hydroxyamino)-3-methyl-3-(methylsulfonyl)-4-oxobutyl)-3-oxo-2,3-dihydro-1H-pyrrolo[1,2-c]imidazol-6-yl)buta-1,3-diyn-1-yl)cyclopropyl)methyl dihydrogen phosphate] | > 16 | 0.5 | 16 |  |  | 
4 | C[C@@](CCN1Cc2cc(C#CC#CC3(NC(=O)OCOP(=O)(O)O)CC3)cn2C1=O)(C(=O)NO)S(C)(=O)=O [Example 74, (phosphonooxy)methyl (R)-(1-((2-(4-(hydroxyamino)-3-methyl-3-(methylsulfonyl)-4-oxobutyl)-3-oxo-2,3-dihydro-1H-pyrrolo[1,2-c]imidazol-6-yl)buta-1,3-diyn-1-yl)cyclopropyl)carbamate] | 4 (≈ 6.99 µM) | 0.25 | 4 |  |  | 
5 | C[C@@](CCN1Cc2cc(C#Cc3ccc(CN4CCC(O)CC4)cc3)cn2C1=O)(C(=O)NO)S(C)(=O)=O [Example 80, (R)-N-hydroxy-4-(6-((4-((4-hydroxypiperidin-1-yl)methyl)phenyl)ethynyl)-3-oxo-1H-pyrrolo[1,2-c]imidazol-2(3H)-yl)-2-methyl-2-(methylsulfonyl)butanamide] |  |  |  | 2 (≈ 3.78 µM) | 1 (≈ 1.89 µM) | 1 (≈ 1.89 µM)
6 | C[C@@](CCN1Cc2cc(C#Cc3ccc(N4CCC(N)CC4)cc3)cn2C1=O)(C(=O)NO)S(C)(=O)=O [Example 81, (R)-4-(6-((4-(4-aminopiperidin-1-yl)phenyl)ethynyl)-3-oxo-1H-pyrrolo[1,2-c]imidazol-2(3H)-yl)-N-hydroxy-2-methyl-2-(methylsulfonyl)butanamide] |  |  |  | 16 (≈ 31.2 µM) | 2 (≈ 3.89 µM) | 8 (≈ 15.6 µM)
7 | C[C@@](CCN1Cc2cc(C#Cc3ccc(CNS(C)(=O)=O)cc3)cn2C1=O)(C(=O)NO)S(C)(=O)=O [Example 82, (R)-N-hydroxy-2-methyl-4-(6-((4-(methylsulfonamidomethyl)phenyl)ethynyl)-3-oxo-1H-pyrrolo[1,2-c]imidazol-2(3H)-yl)-2-(methylsulfonyl)butanamide] |  |  |  | 1 (≈ 1.91 µM) | 1 (≈ 1.91 µM) | 0.5 (≈ 0.957 µM)
8 | C[C@@](CCN1Cc2cc(C#CC#CC3CN(C4COC4)C3)cn2C1=O)(C(=O)NO)S(C)(=O)=O [Example 83, (R)-N-hydroxy-2-methyl-2-(methylsulfonyl)-4-(6-((1-(oxetan-3-yl)azetidin-3-yl)buta-1,3-diyn-1-yl)-3-oxo-1H-pyrrolo[1,2-c]imidazol-2(3H)-yl)butanamide] |  |  |  | 0.5 (≈ 1.05 µM) | 1 (≈ 2.11 µM) | 0.5 (≈ 1.05 µM)
